{"source": "patent US10294202B2", "about": "“Pyrrolidinones as herbicides” (FMC Corporation, priority 2013, dated 2019)", "key": {"giant foxtail": {"system": "giant foxtail", "assay": "Test A pre-/postemergence herbicide test", "assay_type": "in vivo, Setaria faberii", "procedure,_shortened": "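Both application timings used compounds in a non-phytotoxic solvent plus surfactant. Pre-emergence: soil sprayed directly after seeding into loam/sand. Post-emergence: foliage of 2–10 cm seedlings (1–2 leaves) sprayed. Injury rated ~10 days later, 0–100.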"}, "crabgrass, large": {"system": "crabgrass, large", "assay": "Test C pre-/postemergence herbicide test", "assay_type": "in vivo, Digitaria sanguinalis", "procedure,_shortened": "(§1)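 Herbicidal effect was judged by eye 13 to 15 days after treatment in the greenhouse, using a 0–100 scale against controls. Chemicals in a non-phytotoxic solvent with surfactant were sprayed onto planted loam/sand soil or onto plants 2 to 18 cm tall in a peat-based growing medium.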"}, "corn": {"system": "corn", "assay": "Test C pre-/postemergence herbicide test", "assay_type": "in vivo, Zea mays", "procedure,_shortened": "as §1"}, "velvetleaf": {"system": "velvetleaf", "assay": "Test C pre-/postemergence herbicide test", "assay_type": "in vivo, Abutilon theophrasti", "procedure,_shortened": "as §1"}, "pigweed": {"system": "pigweed", "assay": "Test C pre-/postemergence herbicide test", "assay_type": "in vivo, Amaranthus retroflexus", "procedure,_shortened": "as §1"}, "ducksalad": {"system": "ducksalad", "assay": "Test C flooded paddy test", "assay_type": "in vivo, Heteranthera limosa", "conditions": "Flood", "procedure,_shortened": "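Plants at the 2-leaf stage in pots flooded to 3 cm were treated by applying compound directly to the paddy water, with depth held throughout. After 13 to 15 days in a greenhouse, response was rated visually against controls on a 0 (no effect) to 100 (complete control) scale.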"}, "barnyardgrass": {"system": "barnyardgrass", "assay": "Test B flooded paddy test", "assay_type": "in vivo, Echinochloa crus-galli", "conditions": "Flood, scale of 0 to 100 where 0 is no effect and 100 is complete control", "procedure,_shortened": "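Visual ratings from 0, meaning no effect, up to 100, meaning complete control, were made by comparison with untreated controls 13 to 15 days after treatment. Test compounds went straight into floodwater standing 3 cm over the soil of pots holding 2-leaf seedlings.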"}, "foxtail, giant": {"system": "foxtail, giant", "assay": "Test C pre-/postemergence herbicide test", "assay_type": "in vivo, Setaria faberii", "procedure,_shortened": "as §1"}, "[1]": {"conditions": "Postemergence, 125 g ai/ha, visual rating on 0 to 100 scale (0 no effect, 100 complete control), approx. 10 days"}, "[2]": {"conditions": "Postemergence, 500 g ai/ha, 0 to 100 scale (0 no effect, 100 complete control)"}, "[3]": {"conditions": "Preemergence, 125 g ai/ha, 0 to 100 scale where 0 is no effect and 100 is complete control"}, "[4]": {"conditions": "Preemergence, 500 g ai/ha, visual rating on 0 to 100 scale (0 no effect, 100 complete control)"}, "[5]": {"conditions": "Postemergence, 31 g ai/ha, scale 0 to 100 (0 no effect, 100 complete control)"}, "[6]": {"conditions": "Postemergence, 62 g ai/ha, scale 0 (no effect) to 100 (complete control)"}, "[7]": {"conditions": "Postemergence, 125 g ai/ha, scale 0 to 100 (0 no effect, 100 complete control)"}, "[8]": {"conditions": "Postemergence, 250 g ai/ha, scale 0 to 100 (0 no effect, 100 complete control)"}, "[9]": {"conditions": "Preemergence, 31 g ai/ha, scale 0 to 100, 0 is no effect and 100 is complete control"}, "[10]": {"conditions": "Preemergence, 62 g ai/ha, scale 0 to 100 (0 no effect, 100 complete control)"}, "[11]": {"conditions": "Preemergence, 125 g ai/ha, scale 0 to 100"}, "[12]": {"conditions": "125 g ai/ha, scale of 0 to 100 where 0 is no effect and 100 is complete control, 13 to 15 days"}, "[13]": {"conditions": "250 g ai/ha, scale of 0 to 100 where 0 is no effect and 100 is complete control, 13 to 15 days"}, "[14]": {"conditions": "Preemergence, 31 g ai/ha, scale 0 to 100"}}, "data": [{"smiles": "O=C1NCC(c2cccc(OC(F)F)c2)C1C(=O)Nc1ccccc1F", "note": "(stereo not drawn) [Compound 323]", "values": [{"measurement": "Plant response rating, Foxtail, Giant", "setting": "giant foxtail; [1]", "value": 90}, {"measurement": "Plant response rating, Foxtail, Giant", "setting": "giant foxtail; [2]", "value": 90}, {"measurement": "Plant response rating, Foxtail, Giant", "setting": "giant foxtail; [3]", "value": 90}, {"measurement": "Foxtail, Giant plant response rating", "setting": "giant foxtail; [4]", "value": 90}, {"measurement": "Plant response rating, Crabgrass, Large", "setting": "crabgrass, large; [5]", "value": 0}, {"measurement": "Plant response rating, Crabgrass, Large", "setting": "crabgrass, large; [6]", "value": 40}, {"measurement": "Plant response rating, Crabgrass, Large", "setting": "crabgrass, large; [7]", "value": 70}, {"measurement": "Plant response rating, Crabgrass, Large", "setting": "crabgrass, large; [8]", "value": 80}, {"measurement": "Crabgrass, Large plant response rating", "setting": "crabgrass, large; [9]", "value": 95}, {"measurement": "Crabgrass, Large plant response rating", "setting": "crabgrass, large; [10]", "value": 98}, {"measurement": "Plant response rating, Crabgrass, Large", "setting": "crabgrass, large; [11]", "value": 98}, {"measurement": "Plant response rating (scale of 0 to 100), Crabgrass, Large", "setting": "crabgrass, large; Preemergence, 250 g ai/ha", "value": 100}, {"measurement": "Plant response rating, Corn", "setting": "corn; [5]", "value": 0}, {"measurement": "Plant response rating, Corn", "setting": "corn; [6]", "value": 0}, {"measurement": "Plant response rating, Corn", "setting": "corn; [7]", "value": 5}, {"measurement": "Plant response rating, Corn", "setting": "corn; [8]", "value": 10}, {"measurement": "Corn plant response rating", "setting": "corn; [9]", "value": 0}, {"measurement": "Corn plant response rating", "setting": "corn; [10]", "value": 0}, {"measurement": "Plant response rating, Corn", "setting": "corn; [11]", "value": 10}, {"measurement": "Plant response rating (scale of 0 to 100), Corn", "setting": "corn; Preemergence, 250 g ai/ha", "value": 75}, {"measurement": "Plant response rating, Velvetleaf", "setting": "velvetleaf; [5]", "value": 0}, {"measurement": "Plant response rating, Velvetleaf", "setting": "velvetleaf; [6]", "value": 20}, {"measurement": "Plant response rating, Velvetleaf", "setting": "velvetleaf; [7]", "value": 0}, {"measurement": "Plant response rating, Velvetleaf", "setting": "velvetleaf; [8]", "value": 0}, {"measurement": "Velvetleaf plant response rating", "setting": "velvetleaf; [10]", "value": 15}, {"measurement": "Plant response rating, Velvetleaf", "setting": "velvetleaf; [11]", "value": 40}, {"measurement": "Plant response rating, Pigweed", "setting": "pigweed; [5]", "value": 0}, {"measurement": "Plant response rating, Pigweed", "setting": "pigweed; [6]", "value": 5}, {"measurement": "Plant response rating, Pigweed", "setting": "pigweed; [7]", "value": 25}, {"measurement": "Plant response rating, Pigweed", "setting": "pigweed; [8]", "value": 25}, {"measurement": "Pigweed plant response rating", "setting": "pigweed; [9]", "value": 35}, {"measurement": "Pigweed plant response rating", "setting": "pigweed; [10]", "value": 35}, {"measurement": "Plant response rating, Pigweed", "setting": "pigweed; [11]", "value": 55}, {"measurement": "Plant response rating, Ducksalad", "setting": "ducksalad; 31 g ai/ha, scale of 0 to 100 where 0 is no effect and 100 is complete control, 13 to 15 days", "value": 50}, {"measurement": "Plant response rating, Ducksalad", "setting": "ducksalad; 62 g ai/ha, scale of 0 to 100 where 0 is no effect and 100 is complete control, 13 to 15 days", "value": 75}, {"measurement": "Plant response rating, Ducksalad", "setting": "ducksalad; [12]", "value": 90}, {"measurement": "Plant response rating, Ducksalad", "setting": "ducksalad; [13]", "value": 100}, {"measurement": "Plant response rating, Barnyardgrass", "setting": "barnyardgrass; 500 g ai/ha", "value": 80}, {"measurement": "Plant response rating, Foxtail, Giant", "setting": "foxtail, giant; [5]", "value": 0}, {"measurement": "Plant response rating, Foxtail, Giant", "setting": "foxtail, giant; [6]", "value": 0}, {"measurement": "Plant response rating, Foxtail, Giant", "setting": "foxtail, giant; [7]", "value": 35}, {"measurement": "Plant response rating, Foxtail, Giant", "setting": "foxtail, giant; [8]", "value": 70}, {"measurement": "Foxtail, Giant plant response rating", "setting": "foxtail, giant; [9]", "value": 90}, {"measurement": "Foxtail, Giant plant response rating", "setting": "foxtail, giant; [10]", "value": 95}, {"measurement": "Plant response rating, Foxtail, Giant", "setting": "foxtail, giant; [11]", "value": 95}, {"measurement": "Plant response rating (scale of 0 to 100), Foxtail, Giant", "setting": "foxtail, giant; Preemergence, 250 g ai/ha", "value": 98}]}, {"smiles": "O=C1NCC(c2ccc(F)c(F)c2)C1C(=O)Nc1ccc(F)c(F)c1F", "note": "(stereo not drawn) [Compound 346]", "values": [{"measurement": "Plant response rating, Foxtail, Giant", "setting": "giant foxtail; [1]", "value": 80}, {"measurement": "Plant response rating, Foxtail, Giant", "setting": "giant foxtail; [2]", "value": 90}, {"measurement": "Plant response rating, Foxtail, Giant", "setting": "giant foxtail; [3]", "value": 90}, {"measurement": "Foxtail, Giant plant response rating", "setting": "giant foxtail; [4]", "value": 90}, {"measurement": "Plant response rating, Crabgrass, Large", "setting": "crabgrass, large; [5]", "value": 0}, {"measurement": "Plant response rating, Crabgrass, Large", "setting": "crabgrass, large; [6]", "value": 25}, {"measurement": "Plant response rating, Crabgrass, Large", "setting": "crabgrass, large; [7]", "value": 60}, {"measurement": "Plant response rating, Crabgrass, Large", "setting": "crabgrass, large; [8]", "value": 75}, {"measurement": "Crabgrass, Large plant response rating", "setting": "crabgrass, large; [10]", "value": 95}, {"measurement": "Plant response rating, Crabgrass, Large", "setting": "crabgrass, large; [11]", "value": 98}, {"measurement": "Plant response rating (scale of 0 to 100), Crabgrass, Large", "setting": "crabgrass, large; Preemergence, 250 g ai/ha", "value": 100}, {"measurement": "Plant response rating, Crabgrass, Large", "setting": "crabgrass, large; [14]", "value": 95}, {"measurement": "Plant response rating, Corn", "setting": "corn; [5]", "value": 0}, {"measurement": "Plant response rating, Corn", "setting": "corn; [6]", "value": 0}, {"measurement": "Plant response rating, Corn", "setting": "corn; [7]", "value": 0}, {"measurement": "Plant response rating, Corn", "setting": "corn; [8]", "value": 0}, {"measurement": "Corn plant response rating", "setting": "corn; [10]", "value": 0}, {"measurement": "Plant response rating, Corn", "setting": "corn; [11]", "value": 0}, {"measurement": "Plant response rating (scale of 0 to 100), Corn", "setting": "corn; Preemergence, 250 g ai/ha", "value": 5}, {"measurement": "Plant response rating, Corn", "setting": "corn; [14]", "value": 0}, {"measurement": "Plant response rating, Velvetleaf", "setting": "velvetleaf; [5]", "value": 0}, {"measurement": "Plant response rating, Velvetleaf", "setting": "velvetleaf; [6]", "value": 0}, {"measurement": "Plant response rating, Velvetleaf", "setting": "velvetleaf; [7]", "value": 5}, {"measurement": "Plant response rating, Velvetleaf", "setting": "velvetleaf; [8]", "value": 20}, {"measurement": "Velvetleaf plant response rating", "setting": "velvetleaf; [10]", "value": 0}, {"measurement": "Plant response rating, Velvetleaf", "setting": "velvetleaf; [11]", "value": 10}, {"measurement": "Plant response rating, Velvetleaf", "setting": "velvetleaf; [14]", "value": 0}, {"measurement": "Plant response rating, Pigweed", "setting": "pigweed; [5]", "value": 5}, {"measurement": "Plant response rating, Pigweed", "setting": "pigweed; [6]", "value": 5}, {"measurement": "Plant response rating, Pigweed", "setting": "pigweed; [7]", "value": 20}, {"measurement": "Plant response rating, Pigweed", "setting": "pigweed; [8]", "value": 40}, {"measurement": "Pigweed plant response rating", "setting": "pigweed; [10]", "value": 55}, {"measurement": "Plant response rating, Pigweed", "setting": "pigweed; [11]", "value": 60}, {"measurement": "Plant response rating, Pigweed", "setting": "pigweed; [14]", "value": 40}, {"measurement": "Plant response rating, Ducksalad", "setting": "ducksalad; [12]", "value": 95}, {"measurement": "Plant response rating, Ducksalad", "setting": "ducksalad; [13]", "value": 100}, {"measurement": "Plant response rating, Ducksalad", "setting": "ducksalad; 500 g ai/ha, scale 0 to 100", "value": 100}, {"measurement": "Plant response rating, Ducksalad", "setting": "ducksalad; 1000 g ai/ha, scale 0 to 100", "value": 100}, {"measurement": "Plant response rating, Barnyardgrass", "setting": "barnyardgrass; 1000 g ai/ha", "value": 85}, {"measurement": "Plant response rating, Foxtail, Giant", "setting": "foxtail, giant; [5]", "value": 20}, {"measurement": "Plant response rating, Foxtail, Giant", "setting": "foxtail, giant; [6]", "value": 0}, {"measurement": "Plant response rating, Foxtail, Giant", "setting": "foxtail, giant; [7]", "value": 40}, {"measurement": "Plant response rating, Foxtail, Giant", "setting": "foxtail, giant; [8]", "value": 85}, {"measurement": "Foxtail, Giant plant response rating", "setting": "foxtail, giant; [10]", "value": 90}, {"measurement": "Plant response rating, Foxtail, Giant", "setting": "foxtail, giant; [11]", "value": 98}, {"measurement": "Plant response rating (scale of 0 to 100), Foxtail, Giant", "setting": "foxtail, giant; Preemergence, 250 g ai/ha", "value": 98}, {"measurement": "Plant response rating, Foxtail, Giant", "setting": "foxtail, giant; [14]", "value": 90}]}]}
